Experimental data taken from ChEMBL document CHEMBL4715697, “Synthesis and biological activity of benzamide DNA minor groove binders” (2016).

What was measured:
Assay type in all cases: functional
[1] = system: A549; assay: Growth inhibition of human A549/ATCC cells assessed as cell growth at 100 uM incubated for 48 hrs by sulforhodamine B assay relative to control; conditions: read-out: Activity
[2] = system: A498; assay: Growth inhibition of human A498 cells assessed as cell growth at 0.1 uM incubated for 48 hrs by sulforhodamine B assay relative to control; conditions: read-out: Activity
[3] = system: LOX IMVI; assay: Growth inhibition of human LOX IMVI cells incubated for 48 hrs by sulforhodamine B assay
[4] = system: DU-145; assay: Growth inhibition of human DU-145 cells assessed as cell growth at 0.1 uM incubated for 48 hrs by sulforhodamine B assay relative to control; conditions: read-out: Activity
[5] = system: HCT-116; assay: Growth inhibition of human HCT-116 cells incubated for 48 hrs by sulforhodamine B assay
[6] = system: U-251; assay: Growth inhibition of human U-251 cells assessed as cell growth at 0.1 uM incubated for 48 hrs by sulforhodamine B assay relative to control; conditions: read-out: Activity
[7] = system: OVCAR-4; assay: Growth inhibition of human OVCAR-4 cells assessed as cell growth at 0.1 uM incubated for 48 hrs by sulforhodamine B assay relative to control; conditions: read-out: Activity
[8] = system: NCI-H322M; assay: Growth inhibition of human NCI-H322M cells assessed as cell growth at 0.01 uM incubated for 48 hrs by sulforhodamine B assay relative to control; conditions: read-out: Activity
[9] = system: UO-31; assay: Growth inhibition of human UO-31 cells assessed as cell growth at 1 uM incubated for 48 hrs by sulforhodamine B assay relative to control; conditions: read-out: Activity
[10] = system: OVCAR-5; assay: Growth inhibition of human OVCAR-5 cells incubated for 48 hrs by sulforhodamine B assay
[11] = system: SK-OV-3; assay: Growth inhibition of human SK-OV-3 cells assessed as cell growth at 1 uM incubated for 48 hrs by sulforhodamine B assay relative to control; conditions: read-out: Activity
[12] = system: HT-29; assay: Growth inhibition of human HT-29 cells assessed as cell growth at 1 uM incubated for 48 hrs by sulforhodamine B assay relative to control; conditions: read-out: Activity
[13] = system: PC-3; assay: Growth inhibition of human PC-3 cells assessed as cell growth at 1 uM incubated for 48 hrs by sulforhodamine B assay relative to control; conditions: read-out: Activity
[14] = system: OVCAR-4; assay: Growth inhibition of human OVCAR-4 cells assessed as cell growth at 100 uM incubated for 48 hrs by sulforhodamine B assay relative to control; conditions: read-out: Activity
[15] = system: A549; assay: Growth inhibition of human A549/ATCC cells incubated for 48 hrs by sulforhodamine B assay
[16] = system: TK-10; assay: Growth inhibition of human TK-10 cells assessed as cell growth at 0.1 uM incubated for 48 hrs by sulforhodamine B assay relative to control; conditions: read-out: Activity
[17] = system: OVCAR-4; assay: Growth inhibition of human OVCAR-4 cells assessed as cell growth at 0.01 uM incubated for 48 hrs by sulforhodamine B assay relative to control; conditions: read-out: Activity
[18] = system: NCI-H460; assay: Growth inhibition of human NCI-H460 cells assessed as cell growth at 0.01 uM incubated for 48 hrs by sulforhodamine B assay relative to control; conditions: read-out: Activity
[19] = system: CCRF-CEM; assay: Growth inhibition of human CCRF-CEM cells assessed as cell growth at 1 uM incubated for 48 hrs by sulforhodamine B assay relative to control; conditions: read-out: Activity
[20] = system: COLO 205; assay: Growth inhibition of human COLO 205 cells assessed as cell growth at 1 uM incubated for 48 hrs by sulforhodamine B assay relative to control; conditions: read-out: Activity
[21] = system: RXF 393; assay: Growth inhibition of human RXF 393 cells incubated for 48 hrs by sulforhodamine B assay
[22] = system: HL-60(TB); assay: Growth inhibition of human HL-60(TB) cells assessed as cell growth at 100 uM incubated for 48 hrs by sulforhodamine B assay relative to control; conditions: read-out: Activity
[23] = system: NCI/ADR-RES; assay: Growth inhibition of human NCI/ADR-RES cells assessed as cell growth at 100 uM incubated for 48 hrs by sulforhodamine B assay relative to control; conditions: read-out: Activity
[24] = system: MOLT-4; assay: Growth inhibition of human MOLT-4 cells incubated for 48 hrs by sulforhodamine B assay
[25] = system: SNB-75; assay: Growth inhibition of human SNB-75 cells assessed as cell growth at 100 uM incubated for 48 hrs by sulforhodamine B assay relative to control; conditions: read-out: Activity
[26] = system: HT-29; assay: Growth inhibition of human HT-29 cells assessed as cell growth at 100 uM incubated for 48 hrs by sulforhodamine B assay relative to control; conditions: read-out: Activity
[27] = system: OVCAR-5; assay: Growth inhibition of human OVCAR-5 cells assessed as cell growth at 1 uM incubated for 48 hrs by sulforhodamine B assay relative to control; conditions: read-out: Activity
[28] = system: NCI/ADR-RES; assay: Growth inhibition of human NCI/ADR-RES cells assessed as cell growth at 0.1 uM incubated for 48 hrs by sulforhodamine B assay relative to control; conditions: read-out: Activity
[29] = system: K562; assay: Growth inhibition of human K562 cells assessed as cell growth at 1 uM incubated for 48 hrs by sulforhodamine B assay relative to control; conditions: read-out: Activity
[30] = system: A498; assay: Growth inhibition of human A498 cells assessed as cell growth at 100 uM incubated for 48 hrs by sulforhodamine B assay relative to control; conditions: read-out: Activity
[31] = system: A549; assay: Growth inhibition of human A549/ATCC cells assessed as cell growth at 0.1 uM incubated for 48 hrs by sulforhodamine B assay relative to control; conditions: read-out: Activity
[32] = system: SNB-75; assay: Growth inhibition of human SNB-75 cells assessed as cell growth at 1 uM incubated for 48 hrs by sulforhodamine B assay relative to control; conditions: read-out: Activity
[33] = system: EKVX; assay: Growth inhibition of human EKVX cells assessed as cell growth at 0.1 uM incubated for 48 hrs by sulforhodamine B assay relative to control; conditions: read-out: Activity
[34] = system: HCT-116; assay: Growth inhibition of human HCT-116 cells assessed as cell growth at 100 uM incubated for 48 hrs by sulforhodamine B assay relative to control; conditions: read-out: Activity
[35] = system: K562; assay: Growth inhibition of human K562 cells incubated for 48 hrs by sulforhodamine B assay
[36] = read-out: LC50 (the source's name)
[37] = read-out: pLC50 (the source's name) (converted)

CC(=O)Nc1cc(CCl)cc(NC(=O)c2ccc(C(=O)Nc3cccc(NC(=O)CCCN(C)C)c3)cc2)c1
73%: growth at 0.1 µM [2]
103%: growth at 1 µM [13]
> 100 µM: GI50 ([3]; read-out: GI50) | LC50 (concentration giving 50% cell kill) ([3]; read-out: LC50) | TGI ([3]; read-out: TGI) | GI50 ([3]; read-out: pGI50 (converted)) | LC50 (concentration giving 50% cell kill) ([3]; read-out: pLC50 (converted)) | TGI ([3]; read-out: pTGI) | GI50 ([5]; read-out: GI50) | CC50 [5, 36] | TGI ([5]; read-out: TGI) | GI50 ([5]; read-out: pGI50 (converted)) | CC50 [5, 37] | TGI ([5]; read-out: pTGI) | GI50 ([10]; read-out: GI50) | LC50 ([10]; read-out: LC50) | TGI ([10]; read-out: TGI) | GI50 ([10]; read-out: pGI50 (converted)) | LC50 ([10]; read-out: pLC50 (converted)) | TGI ([10]; read-out: pTGI) | GI50 ([15]; read-out: GI50) | CC50 [15, 36] | TGI ([15]; read-out: TGI) | GI50 ([15]; read-out: pGI50 (converted)) | CC50 [15, 37] | TGI ([15]; read-out: pTGI) | GI50 ([21]; read-out: GI50) | CC50 [21, 36] | TGI ([21]; read-out: TGI) | GI50 ([21]; read-out: pGI50 (converted)) | CC50 [21, 37] | TGI ([21]; read-out: pTGI) | GI50 ([24]; read-out: GI50) | CC50 [24, 36] | TGI ([24]; read-out: TGI) | GI50 ([24]; read-out: pGI50 (converted)) | CC50 [24, 37] | TGI ([24]; read-out: pTGI) | GI50 ([35]; read-out: GI50) | CC50 [35, 36] | TGI ([35]; read-out: TGI) | GI50 ([35]; read-out: pGI50 (converted)) | CC50 [35, 37] | TGI ([35]; read-out: pTGI)
106%: growth at 0.1 µM [4] | growth at 0.01 µM [8] | growth at 1 µM [11] | growth at 0.1 µM [16]
101%: growth at 1 µM [12]
83%: growth at 1 µM [27]
82%: growth at 100 µM [34]
94%: growth at 0.1 µM [6] | growth at 0.1 µM [7]
96%: growth at 1 µM [29]
98%: growth at 0.1 µM [28]
85%: growth at 100 µM [23]
109%: growth at 1 µM [20]
88%: growth at 100 µM [1]
89%: growth at 100 µM [14]
62%: growth at 100 µM [30]
107%: growth at 1 µM [19]
87%: growth at 0.1 µM [33]
78%: growth at 1 µM [32]
90%: growth at 100 µM [22]
97%: growth at 1 µM [9] | growth at 100 µM [25]
51%: growth at 100 µM [26]
99%: growth at 0.01 µM [17] | growth at 0.1 µM [31]
105%: growth at 0.01 µM [18]
